Reference: patent US20170050957A1, “4-AMINO-6-(HETEROCYCLIC)PICOLINATES AND 6-AMINO-2-(HETEROCYCLIC)PYRIMIDINE-4-CARBOXYLATES AND THEIR USE AS HERBICIDES” (Dow AgroSciences LLC, priority 2013, published 2017)
Read-outs that look alike come from different tables or passages of the source.

Key:
[1] = tested on: Key Broadleaf Weed and Crop Species; assay: Post-emergent Test II herbicidal activity (Table 15); type: in vivo; settings: post-emergence, 336 h, 14 d; for pest or weed control at 35 g/ha: 35 g ai/ha; for pest or weed control at 70 g/ha: 70 g ai/ha; for pest or weed control at 140 g/ha: 140 g ai/ha
Outline: (§1)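 Greenhouse-grown seedlings at first/second true leaf receive a track spray at 187 L/ha, using a highest rate plus two-fold serial dilutions down to 1/16×. Watering is by subirrigation to avoid wash-off. Percent injury (0-100) is judged by eye at 14 d against untreated plants.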

[2] = tested on: Key Grass and Sedge Weeds as well as Grass Crops; assay: Post-emergent Test II herbicidal activity (Table 16); type: in vivo; settings: post-emergence, 336 h, 14 days after application; for pest or weed control at 35 g/ha: 35 g ai/ha; for pest or weed control at 70 g/ha: 70 g ai/ha; for pest or weed control at 140 g/ha: 140 g ai/ha
Outline: as §1

[3] = Abutilon theophrasti, velvetleaf (Abutilon theophrasti), read-out: Visual Growth Reduction (%) 14 Days After Application, ABUTH
[4] = Amaranthus retroflexus, redroot pigweed (Amaranthus retroflexus), read-out: Visual Growth Reduction (%) 14 Days After Application, AMARE
[5] = Brassica napus, oilseed rape, canola (Brassica napus), read-out: Visual Growth Reduction (%) 14 Days After Application, BRSNN
[6] = Chenopodium album, lambsquarters (Chenopodium album), read-out: Visual Growth Reduction (%) 14 Days After Application, CHEAL
[7] = Euphorbia heterophylla, wild poinsettia (Euphorbia heterophylla), read-out: Visual Growth Reduction (%) 14 Days After Application, EPHHL
[8] = Helianthus annuus, sunflower (Helianthus annuus), read-out: Visual Growth Reduction (%) 14 Days After Application, HELAN
[9] = Cyperus esculentus, yellow nutsedge (Cyperus esculentus), read-out: Visual Growth Reduction (%) 14 Days After Application CYPES
[10] = Echinochloa crus-galli, barnyardgrass (Echinochloa crus-galli), read-out: Visual Growth Reduction (%) 14 Days After Application ECHCG
[11] = Oryza sativa, rice (Oryza sativa), read-out: Visual Growth Reduction (%) 14 Days After Application ORYSA
[12] = Setaria faberi, giant foxtail (Setaria faberi), read-out: Visual Growth Reduction (%) 14 Days After Application SETFA
[13] = Triticum aestivum, wheat, spring (Triticum aestivum), read-out: Visual Growth Reduction (%) 14 Days After Application TRZAS
[14] = Zea mays, maize, corn (Zea mays), read-out: Visual Growth Reduction (%) 14 Days After Application ZEAMX

## Nc1c(F)c(-c2ccc3scnc3c2)nc(C(=O)O)c1Cl [Compound 6.02]
other
  melting point: 186 to 187 °C
[1]; [3]
  pest or weed control at 35 g/ha: 85 to 94%
  pest or weed control at 70 g/ha: 85 to 94%
  pest or weed control at 140 g/ha: 85 to 94%
[1]; [4]
  pest or weed control at 35 g/ha: 95 to 100%
  pest or weed control at 70 g/ha: 95 to 100%
  pest or weed control at 140 g/ha: 95 to 100%
[1]; [5]
  pest or weed control at 35 g/ha: 95 to 100%
  pest or weed control at 70 g/ha: 95 to 100%
  pest or weed control at 140 g/ha: 95 to 100%
[1]; [6]
  pest or weed control at 35 g/ha: 95 to 100%
  pest or weed control at 70 g/ha: 95 to 100%
  pest or weed control at 140 g/ha: 95 to 100%
[1]; [7]
  pest or weed control at 35 g/ha: 95 to 100%
  pest or weed control at 70 g/ha: 95 to 100%
  pest or weed control at 140 g/ha: 95 to 100%
[1]; [8]
  pest or weed control at 35 g/ha: 95 to 100%
  pest or weed control at 70 g/ha: 95 to 100%
  pest or weed control at 140 g/ha: 95 to 100%
[2]; [9]
  pest or weed control at 35 g/ha: 45 to 59%
  pest or weed control at 70 g/ha: 45 to 59%
  pest or weed control at 140 g/ha: 45 to 59%
[2]; [10]
  pest or weed control at 35 g/ha: 75 to 84%
  pest or weed control at 70 g/ha: 75 to 84%
  pest or weed control at 140 g/ha: 85 to 94%
[2]; [11]
  pest or weed control at 35 g/ha: 0 to 29%
  pest or weed control at 70 g/ha: 0 to 29%
  pest or weed control at 140 g/ha: 0 to 29%
[2]; [12]
  pest or weed control at 35 g/ha: 0 to 29%
  pest or weed control at 70 g/ha: 45 to 59%
  pest or weed control at 140 g/ha: 60 to 74%
[2]; [13]
  pest or weed control at 35 g/ha: 0 to 29%
  pest or weed control at 70 g/ha: 0 to 29%
  pest or weed control at 140 g/ha: 30 to 44%
[2]; [14]
  pest or weed control at 35 g/ha: 0 to 29%
  pest or weed control at 70 g/ha: 0 to 29%
  pest or weed control at 140 g/ha: 0 to 29%

## COC(=O)c1nc(-c2ccc3ncn(C)c3c2)c(F)c(N)c1Cl [Compound 7.02]
other
  melting point: 218 to 220 °C
[1]; [3]
  pest or weed control at 35 g/ha: 0 to 29%
  pest or weed control at 70 g/ha: 0 to 29%
  pest or weed control at 140 g/ha: 0 to 29%
[1]; [4]
  pest or weed control at 35 g/ha: 0 to 29%
  pest or weed control at 70 g/ha: 0 to 29%
  pest or weed control at 140 g/ha: 0 to 29%
[1]; [5]
  pest or weed control at 35 g/ha: 0 to 29%
  pest or weed control at 70 g/ha: 0 to 29%
  pest or weed control at 140 g/ha: 0 to 29%
[1]; [6]
  pest or weed control at 35 g/ha: 0 to 29%
  pest or weed control at 70 g/ha: 75 to 84%
  pest or weed control at 140 g/ha: 95 to 100%
[1]; [7]
  pest or weed control at 35 g/ha: 0 to 29%
  pest or weed control at 70 g/ha: 0 to 29%
  pest or weed control at 140 g/ha: 0 to 29%
[1]; [8]
  pest or weed control at 35 g/ha: 0 to 29%
  pest or weed control at 70 g/ha: 0 to 29%
  pest or weed control at 140 g/ha: 0 to 29%
[2]; [9]
  pest or weed control at 35 g/ha: 0 to 29%
  pest or weed control at 70 g/ha: 0 to 29%
  pest or weed control at 140 g/ha: 0 to 29%
[2]; [10]
  pest or weed control at 35 g/ha: 0 to 29%
  pest or weed control at 70 g/ha: 0 to 29%
  pest or weed control at 140 g/ha: 0 to 29%
[2]; [11]
  pest or weed control at 35 g/ha: 0 to 29%
  pest or weed control at 70 g/ha: 0 to 29%
  pest or weed control at 140 g/ha: 0 to 29%
[2]; [13]
  pest or weed control at 35 g/ha: 0 to 29%
  pest or weed control at 70 g/ha: 0 to 29%
  pest or weed control at 140 g/ha: 0 to 29%
[2]; [14]
  pest or weed control at 35 g/ha: 0 to 29%
  pest or weed control at 70 g/ha: 0 to 29%
  pest or weed control at 140 g/ha: 0 to 29%
